# Laboratory results taken from article PMC9501810, “Bitter Peptides YFYPEL, [sequence], and [sequence], Released during Gastric Digestion of Casein, Stimulate Mechanisms of Gastric Acid Secretion via Bitter Taste Receptors TAS2R16 and TAS2R38” (Journal of Agricultural and Food Chemistry, 2022).
# “And” between values parts separate entries of the source, which are not always exact repeats. Equal entries are not always repeated.
# What was measured:
# Format in all cases: cell-based, human
# [1] = system: TAS2R4; assay: RT-qPCR gene expression of TAS2R4 in HGT-1 cells; settings: VAPFPEVF 17.5 µM, YFYPEL 0.03 µM, YQEPVLGPVRGPFPIIV 0.4 µM, normalized to PPIA and GAPDH and untreated cells, mean, n = 3–5
# Method: (§1) For mRNA expression analysis, 800,000 cells were seeded in a T25 cell culture flask (25 cm^2) 1 day before the experiment. After incubation with 17.5 μM […], 0.03 μM YFYPEL, or 0.4 μM […] for 15, 30, 60, and 120 min, RNA was isolated using the peqGOLD RNA Kit (VWR Peqlab, USA) following the manufacturer’s protocol. Determination of RNA concentration (A260/A280 between 2.03 and 2.09) was performed on a NanoDrop One^c (Thermo Fisher Scientific Inc., USA). RNA integrity number (RIN 9.9–10.0, version 2.6, assay class Eukaryote Total RNA Nano) was analyzed using a 2100 Bioanalyzer (Agilent Technologies, USA). Removal of gDNA and synthesis of cDNA were performed using the iScript gDNA Clear cDNA Synthesis Kit (BioRad, Feldkirchen, Germany) following the manufacturer’s protocol. Real-time-qPCR (RT-qPCR) was performed with 50 ng cDNA amplified with SsoAdvanced Universal SYBR Green Supermix (Bio-Rad Laboratories, Inc., USA). The sequences of the forward and reverse primers of the 25 TAS2Rs were taken from Liszt et al.([13]) (Supporting Information Table-SI 3). Verified primers for the TAS1Rs (TAS1R1: qHsaCID0013443; TAS1R2: qHsaCID0016106; TAS1R3: qHsaCED0002321) and for MAPK1 (qHsaCEP0050000) were obtained from Bio-Rad Laboratories. PPIA[37] and GAPDH[38] were used as reference genes. The effects of the peptides on gene expression were analyzed in comparison to untreated control cells.
# [2] = system: TAS2R5; assay: RT-qPCR gene expression of TAS2R5 in HGT-1 cells; settings: VAPFPEVF 17.5 µM, YFYPEL 0.03 µM, YQEPVLGPVRGPFPIIV 0.4 µM, normalized to PPIA and GAPDH and untreated cells, mean, n = 3–5
# Method: as §1
# [3] = system: TAS2R7; assay: RT-qPCR gene expression of TAS2R7 in HGT-1 cells; settings: VAPFPEVF 17.5 µM, YFYPEL 0.03 µM, YQEPVLGPVRGPFPIIV 0.4 µM, normalized to PPIA and GAPDH and untreated cells, mean, n = 3–5
# Method: as §1
# [4] = system: TAS2R10; assay: RT-qPCR gene expression of TAS2R10 in HGT-1 cells; settings: VAPFPEVF 17.5 µM, YFYPEL 0.03 µM, YQEPVLGPVRGPFPIIV 0.4 µM, normalized to PPIA and GAPDH and untreated cells, mean, n = 3–5
# Method: as §1
# [5] = system: TAS2R14; assay: RT-qPCR gene expression of TAS2R14 in HGT-1 cells; settings: VAPFPEVF 17.5 µM, YFYPEL 0.03 µM, YQEPVLGPVRGPFPIIV 0.4 µM, normalized to PPIA and GAPDH and untreated cells, mean, n = 3–5
# Method: as §1
# [6] = system: TAS2R16; assay: RT-qPCR gene expression of TAS2R16 in HGT-1 cells; settings: VAPFPEVF 17.5 µM, YFYPEL 0.03 µM, YQEPVLGPVRGPFPIIV 0.4 µM, normalized to PPIA and GAPDH and untreated cells, mean, n = 3–5
# Method: as §1, with “cells. […]” for “cells.”
# [7] = system: TAS2R20; assay: RT-qPCR gene expression of TAS2R20 in HGT-1 cells; settings: VAPFPEVF 17.5 µM, YFYPEL 0.03 µM, YQEPVLGPVRGPFPIIV 0.4 µM, normalized to PPIA and GAPDH and untreated cells, mean, n = 3–5
# Method: as §1
# [8] = system: TAS2R31; assay: RT-qPCR gene expression of TAS2R31 in HGT-1 cells; settings: VAPFPEVF 17.5 µM, YFYPEL 0.03 µM, YQEPVLGPVRGPFPIIV 0.4 µM, normalized to PPIA and GAPDH and untreated cells, mean, n = 3–5
# Method: as §1
# [9] = system: TAS2R39; assay: RT-qPCR gene expression of TAS2R39 in HGT-1 cells; settings: VAPFPEVF 17.5 µM, YFYPEL 0.03 µM, YQEPVLGPVRGPFPIIV 0.4 µM, normalized to PPIA and GAPDH and untreated cells, mean, n = 3–5
# Method: as §1
# [10] = system: TAS2R41; assay: RT-qPCR gene expression of TAS2R41 in HGT-1 cells; settings: VAPFPEVF 17.5 µM, YFYPEL 0.03 µM, YQEPVLGPVRGPFPIIV 0.4 µM, normalized to PPIA and GAPDH and untreated cells, mean, n = 3–5
# Method: as §1
# [11] = system: TAS2R42; assay: RT-qPCR gene expression of TAS2R42 in HGT-1 cells; settings: VAPFPEVF 17.5 µM, YFYPEL 0.03 µM, YQEPVLGPVRGPFPIIV 0.4 µM, normalized to PPIA and GAPDH and untreated cells, mean, n = 3–5
# Method: as §1
# [12] = system: TAS2R45; assay: RT-qPCR gene expression of TAS2R45 in HGT-1 cells; settings: VAPFPEVF 17.5 µM, YFYPEL 0.03 µM, YQEPVLGPVRGPFPIIV 0.4 µM, normalized to PPIA and GAPDH and untreated cells, mean, n = 3–5
# Method: as §1
# [13] = system: TAS2R46; assay: RT-qPCR gene expression of TAS2R46 in HGT-1 cells; settings: VAPFPEVF 17.5 µM, YFYPEL 0.03 µM, YQEPVLGPVRGPFPIIV 0.4 µM, normalized to PPIA and GAPDH and untreated cells, mean, n = 3–5
# Method: as §1
# [14] = system: TAS2R50; assay: RT-qPCR gene expression of TAS2R50 in HGT-1 cells; settings: VAPFPEVF 17.5 µM, YFYPEL 0.03 µM, YQEPVLGPVRGPFPIIV 0.4 µM, normalized to PPIA and GAPDH and untreated cells, mean, n = 3–5
# Method: as §1
# [15] = system: TAS1R1; assay: RT-qPCR gene expression of TAS1R1 in HGT-1 cells; settings: 0.03 µM YFYPEL, 30 min, p < 0.001
# Method: as §1
substance,measurement,setting,value
YFYPEL [bitter casein peptide αS1-CN144–149],change in gene expression of TAS2R4,[1]; incubation 15 min,1.24 fold change
same,change in gene expression of TAS2R4,[1]; incubation 30 min,0.81 fold change
same,change in gene expression of TAS2R4,[1]; incubation 60 min,0.92 fold change
same,change in gene expression of TAS2R4,[1]; incubation 120 min,1.13 fold change
same,change in gene expression of TAS2R5,[2]; incubation 15 min,1.34 fold change
same,change in gene expression of TAS2R5,[2]; incubation 30 min,1.03 fold change
same,change in gene expression of TAS2R5,[2]; incubation 60 min,0.90 fold change
same,change in gene expression of TAS2R5,[2]; incubation 120 min,1.02 fold change
same,change in gene expression of TAS2R7,[3]; incubation 15 min,1.23 fold change
same,change in gene expression of TAS2R7,[3]; incubation 30 min,2.50 fold change
same,change in gene expression of TAS2R7,[3]; incubation 60 min,6.71 fold change and 6.71 ± 1.56 fold change
same,change in gene expression of TAS2R7,[3]; incubation 120 min,1.18 fold change
same,change in gene expression of TAS2R10,[4]; incubation 15 min,0.64 fold change
same,change in gene expression of TAS2R10,[4]; incubation 30 min,0.41 fold change and 0.41 ± 0.05 fold change
same,change in gene expression of TAS2R10,[4]; incubation 60 min,0.72 fold change
same,change in gene expression of TAS2R10,[4]; incubation 120 min,0.90 fold change
same,change in gene expression of TAS2R14,[5]; incubation 15 min,1.11 fold change
same,change in gene expression of TAS2R14,[5]; incubation 30 min,0.92 fold change
same,change in gene expression of TAS2R14,[5]; incubation 60 min,0.99 fold change
same,change in gene expression of TAS2R14,[5]; incubation 120 min,1.21 fold change
same,change in gene expression of TAS2R16,[6]; incubation 15 min,2.58 fold change
same,change in gene expression of TAS2R16,[6]; incubation 30 min,3.19 fold change and 3.19 ± 0.50 fold change
same,change in gene expression of TAS2R16,[6]; incubation 60 min,2.44 fold change
same,change in gene expression of TAS2R16,[6]; incubation 120 min,2.51 fold change
same,change in gene expression of TAS2R20,[7]; incubation 15 min,1.37 fold change
same,change in gene expression of TAS2R20,[7]; incubation 30 min,0.93 fold change
same,change in gene expression of TAS2R20,[7]; incubation 60 min,0.94 fold change
same,change in gene expression of TAS2R20,[7]; incubation 120 min,1.16 fold change
same,change in gene expression of TAS2R31,[8]; incubation 15 min,1.65 fold change
same,change in gene expression of TAS2R31,[8]; incubation 30 min,0.91 fold change
same,change in gene expression of TAS2R31,[8]; incubation 60 min,0.96 fold change
same,change in gene expression of TAS2R31,[8]; incubation 120 min,1.09 fold change
same,change in gene expression of TAS2R39,[9]; incubation 15 min,1.21 fold change
same,change in gene expression of TAS2R39,[9]; incubation 30 min,0.42 fold change
same,change in gene expression of TAS2R39,[9]; incubation 60 min,0.62 fold change
same,change in gene expression of TAS2R39,[9]; incubation 120 min,0.45 fold change
same,change in gene expression of TAS2R41,[10]; incubation 15 min,2.82 fold change
same,change in gene expression of TAS2R41,[10]; incubation 30 min,1.56 fold change
same,change in gene expression of TAS2R41,[10]; incubation 60 min,4.58 fold change
same,change in gene expression of TAS2R41,[10]; incubation 120 min,3.00 fold change
same,change in gene expression of TAS2R42,[11]; incubation 15 min,1.17 fold change
same,change in gene expression of TAS2R42,[11]; incubation 30 min,0.55 fold change
same,change in gene expression of TAS2R42,[11]; incubation 60 min,0.69 fold change
same,change in gene expression of TAS2R42,[11]; incubation 120 min,0.93 fold change
same,change in gene expression of TAS2R45,[12]; incubation 15 min,1.15 fold change
same,change in gene expression of TAS2R45,[12]; incubation 30 min,0.54 fold change
same,change in gene expression of TAS2R45,[12]; incubation 60 min,0.70 fold change
same,change in gene expression of TAS2R45,[12]; incubation 120 min,0.94 fold change
same,change in gene expression of TAS2R46,[13]; incubation 15 min,1.70 fold change
same,change in gene expression of TAS2R46,[13]; incubation 30 min,0.73 fold change
same,change in gene expression of TAS2R46,[13]; incubation 60 min,1.01 fold change
same,change in gene expression of TAS2R46,[13]; incubation 120 min,1.30 fold change
same,change in gene expression of TAS2R50,[14]; incubation 15 min,1.50 fold change
same,change in gene expression of TAS2R50,[14]; incubation 30 min,0.70 fold change
same,change in gene expression of TAS2R50,[14]; incubation 60 min,0.92 fold change
same,change in gene expression of TAS2R50,[14]; incubation 120 min,0.91 fold change
same,change in expression of TAS1R1,[15],decrease
